Data: US12714097B2, “Compositions and systems for disinfection” (Markesbery Blue Pearl LLC, priority 2017, dated 2026)
Values after ≈ are worked out from the molar mass of the structure shown.

Experiments:
[1] = cited from earlier work; for Sol (Exp): experimental water solubility; for solubility: aqueous, at 25° C.
[2] = cited from earlier work; for log P Exp.: experimentally determined, database entry; for Log P: known values used for standard curve
[3] = Experimental water solubility of alcohol compounds at 25° C.

SMILES | Sol (Exp) ([1]; 25° C.) [g/L] | log P Exp. [2] | other results
CCC(C)(C)CO [2,2-Dimethyl-1-butanol] | 7.6 | – | –
CC(C)C(C)(C)O [2,3-Dimethyl-2-butanol] | 43.5 | – | –
CCC(C)C(C)(C)O (centres unmarked) [2,3-Dimethyl-2-pentanol] | 15.7 | – | –
CC(C)CC(C)(C)O [2,4-Dimethyl-2-pentanol] | 13.6 | – | –
CC(C)C(O)C(C)C [2,4-Dimethyl-3-pentanol] | 7 | – | –
CC=CC=CCO [2,4-Hexadien-1-ol] | – | 1.334 | –
CCC(CC)CO [2-Ethyl-1-butanol] | 4 | – | –
CCCCC(C)O (centres unmarked) [2-hexanol] | 13.7 | 1.76 | Log P [2]: 1.76
Cc1ccccc1O [2-methyl phenol] | 25.9 | – | –
CCCC(C)O (centres unmarked) [2-pentanol] | 44.6 | – | Log P [2]: 1.19
CC(C)=CCO [3-Methyl-2-buten-1-ol] | – | 1.244 | –
CCCC(O)CC (centres unmarked) [3-hexanol] | 16.1 | 1.65 | Solubility (at 25° C.) ([1]; water, 25° C., known values used for standard curve): 16.1 mg/mL (≈ 158 mM); Log P [2]: 1.65
CC(C)CCO [3-methyl-1-butanol] | 26.7 | – | –
CCC(O)CC [3-pentanol] | 51.5 | 1.21 | Log P [2]: 1.21
CC(C)CCCO [4-Methyl-1-pentanol] | 7.6 | – | –
CCCCCCCCO [n-octanol] | – | – | solubility [1]: 0.5 grams per liter
CCCCCO [n-pentanol] | 22 | 1.51 | solubility converted to percent by weight of an aqueous composition [3]: 2.2 % by weight; solubility [1]: 22 grams per liter; Log P [2]: 1.51
